Measurements published in patent publication US5914314A (priority 1989, dated 1999).
Blank lines part the entries; values can stand above or below the molecule they belong to.

Experiments:
[1] = Case XXVIII: carcinoma of the ovary, 40 kg; 120-200 mg LASIX intravenously
[2] = following intravenous administration; cited from earlier work
[3] = system: Grafts from ACI strain rats (black) to Lewis Strain rats (white); test: standard rat skin graft rejection model; type: in vivo; conditions: hyaluronic acid added to cyclosporin
[4] = side effects / toxicity in human patients; type: in vivo; conditions: 10 to 1000 mg/70 kg person
tumor = conditions: injected directly into a tumor
[5] = topical application to scalp, hair growth; type: in vivo, human; conditions: Case XXX: balding patient; topically to scalp
Description: This patient was diagnosed in January, 1990. A gastric resection and colonic replacement of oesophagus (for swallowing) was performed. They had also developed an intraperitoneal tumor. They were given chemotherapy and lost their hair. […] Dr. Falk saw this patient on Jun.
This balding patient applied the product "minoxidil" sold under the trademark "ROGAINE" topically to their scalp.

Molecule: NS(=O)(=O)c1cc(C(=O)O)c(NCc2ccco2)cc1Cl [LASIX, furosemide]
- total volume of urine over 48 hours [1]: 2,450 ml
- duration of action [2]: about 2 hours
- onset of diuresis [2]: ≤ 30 min

Molecule: hyaluronic acid
- cyclosporin induced graft survival [3]: significantly increased cyclosporin induced graft survival
- toxicity [4]: no toxicity

- dispersion in tumor, sonographic (ultrasound) assessment (tumor): not dispersed throughout the tumor
Molecule: CCO [ethyl alcohol]

Molecule: Nc1cc(N2CCCCC2)nc(N)[n+]1[O-] [ROGAINE, minoxidil]
- hair growth [5]: minimal or little hair growth
